Key:
[1] = tested on: N27 cells; assay: N27 cell viability after 24 h (MTT), substance alone; assay type: cell-based, rat
Experimental: The immortalized rat mesencephalic dopaminergic cell line (N27 cells; a kind gift from Dr. Yoon-Seong Kim, Burnett School of Biomedical Sciences, University of Central Florida) was grown in Roswell Park Memorial Institute (RPMI) 1640 medium (Sigma-Aldrich) containing 2 g/L sodium bicarbonate, 10% fetal bovine serum (FBS; Millipore), and 1 mL/L of penicillin/streptomycin (GIBCO) in a humidified atmosphere of 5% CO2 at 37 °C. Cells were plated at a density of 0.31 × 10^5 cells per cm^2 in 96-well culture plates. […] To assess cell viability, MTT reduction was performed as previously described (Section 2.3) with some modifications. Briefly, after 24 h of cell treatments, 0.5 mg/mL of MTT was added to cells for 4 h at 37 °C. Then, the resultant precipitate was dissolved in 10% SDS and quantified at a wavelength of 570 nm.

[2] = tested on: NHDF cells (normal human dermal fibroblasts); assay: MTT cell proliferation assay, NHDF cells; assay type: cell-based; conditions: 72 h, non-tumoral cells, read-out: Estimated IC50, NHDF
Experimental: (§1) LNCaP, PC-3, MCF-7, PNT1A, N27, and NHDF cells were obtained from the American Type Culture Collection (ATCC; Manassas, VA, USA) and were cultured in 75 cm^2 culture flasks at 37 °C in a humidified air incubator with 5% CO2. LNCaP, PC-3, PNT1A, and N27 cells, respectively, were cultured in RPMI 1640 medium (Sigma-Aldrich, Inc. St. Louis, MO, USA) with 10% fetal bovine serum (FBS; Sigma-Aldrich, Inc. St. Louis, MO, USA) and 1% of the antibiotic mixture of 10,000 U/mL penicillin G and […] streptomycin (Sp, Sigma-Aldrich, Inc. St. Louis, MO, USA). MCF-7 cells were cultured in DMEM medium (Sigma-Aldrich, Inc. St. Louis, MO, USA) supplemented with 10% fetal bovine serum (FBS; Sigma-Aldrich, Inc. St. Louis, MO, USA) and 1% antibiotic/antimycotic (10,000 U/mL penicillin G, […] streptomycin, and 25 µg/mL amphotericin B: Ab, Sigma-Aldrich, Inc. St. Louis, MO, USA). Finally, NHDF cells were cultured in RPMI 1640 medium supplemented with 10% FBS, 2 mM L-glutamine, 10 mM HEPES, 1 mM sodium pyruvate, and 1% of the antibiotic/antimycotic Ab, and these cells were used in passages 10th to 14th. For all cell types, the medium was renewed every 2 days until cells nearly reached the confluence state. When cells reach approximately 90–95% confluence, they are gently detached by trypsinization (trypsin-EDTA solution: 0.125 g/L of trypsin and 0.02 g/L of EDTA). Before each experiment, viable cells were counted in a Neubauer chamber by a trypan-blue exclusion assay and adequately diluted in the appropriate complete cell culture medium.
(§2) All tested compounds were dissolved in dimethyl sulfoxide (DMSO; Sigma-Aldrich, Inc. St. Louis, MO, USA) at a concentration of 10 mM and stored at 4 °C. From the mother-solutions, the diluted solutions of the compounds, in different concentrations, were prepared in the respective complete culture medium before each experiment.
(§3) After reaching a confluence state, cells were trypsinized and counted by the trypan-blue exclusion assay and then seeded with an initial density of 2 × 10^4 cells/mL in 96-well culture plates (Nunc, Apogent, Denmark) and left to adhere and grow for 48 h. Subsequently, the medium was removed, and the cells were treated with compound solutions (10 and 50 µM for preliminary studies and 0.01, 0.1, 1, 10, 50, and 100 µM for concentration-response studies) in complete culture medium for 72 h. 5-Fluorouracil (5-FU) was used as a positive control, and untreated cells were used as the negative control. Compounds leading to cell proliferation relative to control clearly below 50%, at 10 µM, or clearly below 25%, at 50 µM, in the screening studies were selected to concentration-response studies in tumoral cell lines. Each experiment was performed in quadruplicate and independently at least two times. The in vitro antiproliferative effects were evaluated by the MTT assay (Sigma-Aldrich, Inc. St. Louis, MO, USA). After the incubation period, the medium was removed, and 100 µL of phosphate buffer saline (PBS, NaCl 137 mM; KCl 2.7 mM; Na2HPO4 10 mM; and KH2PO4 1.8 mM in deionized water with a pH adjusted to 7.4) were used to wash the cells. Then, 100 µL of the MTT solution (5 mg/mL) was prepared in the appropriate serum-free medium and added to each well, followed by incubation for 4 h at 37 °C. Hereafter, the MTT containing medium was removed, and the formazan crystals were dissolved in DMSO. Then, the absorbance was measured at 570 nm using a xMarkTM microplate spectrophotometer from BIO-RAD Laboratories. Cell viability values were expressed as percentages relative to the negative control.

[3] = tested on: PNT1A (normal prostate cells); assay: MTT cell proliferation assay, PNT1A cells; assay type: cell-based; conditions: 72 h, non-tumoral cells, read-out: Estimated IC50, PNT1A
Experimental: as §1, §2, §3

[4] = tested on: N27 (rat dopaminergic neuronal cells); assay: MTT cell proliferation assay, N27 cells; assay type: cell-based; conditions: 72 h, non-tumoral cells, read-out: Estimated IC50, N27
Experimental: as §1, §2, §3

[5] = tested on: PC-3 cells (androgen-independent prostatic cancer); assay: MTT cell proliferation assay, PC-3 cells; assay type: cell-based; conditions: 72 h; for IC50: MTT, tumoral cells, read-out: Estimated IC50, PC-3; for decrease on cell proliferation relative to the control: PC-3, 50 µM
Experimental: as §1, §2, §3

[6] = tested on: LNCaP cells (androgen-dependent prostatic cancer); assay: MTT cell proliferation assay, LNCaP cells; assay type: cell-based; conditions: 72 h; for effect on LNCaP cell proliferation: 10 µM; for decrease in LNCaP cell proliferation: 50 µM; for IC50: MTT, tumoral cells, read-out: Estimated IC50, LNCaP
Experimental: as §1, §2, §3

[7] = tested on: MCF-7 cells (estrogen-responsive breast cancer cells); assay: MTT cell proliferation assay, MCF-7 cells; assay type: cell-based; conditions: 72 h; for IC50: MTT, tumoral cells, read-out: Estimated IC50, MCF-7
Experimental: as §1, §2, §3

[8] = tested on: all cell lines (NHDF, PNT1A, N27, LNCaP, PC-3, MCF-7); assay: MTT preliminary screening, all cell lines taken together; assay type: cell-based; conditions: 50 µM, 72 h
Experimental: as §1, §2, §3

[9] = tested on: N27 cells; assay: Neuroprotection against 6-OHDA-induced toxicity (MTT); assay type: cell-based, rat; conditions: 10 and 50 µM together with 50 µM 6-OHDA, 24 h
Experimental: The immortalized rat mesencephalic dopaminergic cell line (N27 cells; a kind gift from Dr. Yoon-Seong Kim, Burnett School of Biomedical Sciences, University of Central Florida) was grown in Roswell Park Memorial Institute (RPMI) 1640 medium (Sigma-Aldrich) containing 2 g/L sodium bicarbonate, 10% fetal bovine serum (FBS; Millipore), and 1 mL/L of penicillin/streptomycin (GIBCO) in a humidified atmosphere of 5% CO2 at 37 °C. Cells were plated at a density of 0.31 × 10^5 cells per cm^2 in 96-well culture plates. In the MTT assay, N27 cells were incubated in the presence of several compounds with 50 μM of 6-OHDA. To assess cell viability, MTT reduction was performed as previously described (Section 2.3) with some modifications. Briefly, after 24 h of cell treatments, 0.5 mg/mL of MTT was added to cells for 4 h at 37 °C. Then, the resultant precipitate was dissolved in 10% SDS and quantified at a wavelength of 570 nm.

Row | IC50 [6] | IC50 [7] | Compound | reduction in cell viability compared to the control ([1]; 50 μM) | IC50 [2] | IC50 [3] | IC50 [4] | IC50 [5] | effect on LNCaP cell proliferation [6] | decrease in LNCaP cell proliferation [6] | relative cell proliferation [8] | decrease on cell proliferation relative to the control [5] | effect on N27 cell viability ([1]; 10 µM alone) | protection against 6-OHDA-induced neurotoxicity [9] | cell proliferation relative to the control ([7]; MCF-7, 50 µM)
1 | – | – | NCCc1cc(O)c(O)cc1O [Compound 6-OHDA, 6-hydroxydopamine, reference compound] | ~50% | – | – | – | – | – | – | – | – | – | – | –
2 | – | – | COc1ccc(C=C2CC3C4CC5OC56CC(O)CCC6(C)C4CCC3(C)C2=O)cc1 (stereo not drawn) [Compound 16, (E)-16-(4-Metoxybenzylidene)-3-hydroxy-5α ,6α -epoxy-10,13-dimethyl-1,3,4,7,8,9,10,11,12,13,15,16-dodecahydro-2H-cyclopenta[α ]phenanthren-17(14H)-one] | – | 39.3 µM | 54.5 µM | 33.2 µM | 20.1 µM | – | – | – | – | – | – | –
3 | – | – | CC12CCC3C(CC4OC45CC(O)CCC35C)C1CC(=Cc1cccs1)C2=O (stereo not drawn) [Compound 18, (E)-16-(Thiophen-2-ylmethylene)-3-hydroxy-5α ,6α -epoxy-10,13-dimethyl-1,3,4,7,8,9,10,11,12,13,15,16-dodecahydro-2H-cyclopenta[α ]phenanthren-17(14H)-one] | – | 29.7 µM | 29.6 µM | 12.6 µM | 37.6 µM | – | – | – | – | – | – | –
4 | – | – | Cc1ccc(/C=C2\C[C@H]3[C@@H]4C[C@@H]5O[C@@]56CC(O)CC[C@]6(C)[C@H]4CC[C@]3(C)C2=O)o1 (stereo partly drawn) [Compound 21, (E)-16-[(5-Methylfuran-2-yl)methylene]-3-hydroxy-5α ,6α -epoxy-10,13-dimethyl-1,3,4,7,8,9,10,11,12,13,15,16-dodecahydro-2H-cyclopenta[α ]phenanthren-17(14H)-one] | – | 23.4 µM | 46.3 µM | 13.2 µM | – | – | – | – | – | – | – | –
5 | – | – | C[C@]12CC[C@H]3[C@@H](C[C@@H]4O[C@@]45CC(O)CC[C@]35C)[C@@H]1C/C(=C\c1cccc(F)c1F)C2=O (stereo partly drawn) [Compound 24, (E)-16-(2,3-Difluorobenzylidene)-3-hydroxy-5α ,6α -epoxy-10,13-dimethyl-1,3,4,7,8,9,10,11,12,13,15,16-dodecahydro-2H-cyclopenta[α ]phenanthren-17(14H)-one] | – | 33.4 µM | 56.5 µM | 18.9 µM | – | – | – | – | – | – | – | –
6 | – | – | CC12CCC3C(CC4OC45CC(O)CCC35C)C1CCC2C(=O)C=Cc1ccccc1 (stereo not drawn) [cD, 21E-benzylidene-5α,6α-epoxipregnenolone, reference compound] | – | – | – | – | – | – | – | – | – | did not affect cell viability | did not protect | –
7 | 15 µM | 14.5 µM | (E)-16-(2,4-Dichlorobenzylidene)-3-hydroxy-5α ,6α -epoxy-10,13-dimethyl-1,3,4,7,8,9,10,11,12,13,15,16-dodecahydro-2H-cyclopenta[α ]phenanthren-17(14H)-one [Compound 22] | – | 15 µM | 14.4 µM | 16.8 µM | 44.5 µM | no relevant effects | higher than 75% | ≤ 50% | higher than 75% | – | – | ~0%
8 | 27.4 µM | 42.7 µM | (E)-16-Benzylidene-3-hydroxy-5α,6α-epoxy-10,13-dimethyl-1,3,4,7,8,9,10,11,12,13,15,16-dodecahydro-2H-cyclopenta[α]phenanthrene-17(14H)-one [Compound 15] | – | 39.5 µM | 33.1 µM | 9.21 µM | 17 µM | – | – | ≤ 50% | higher than 75% | – | – | –
9 | 11.3 µM | 21.8 µM | (E)-16-[(5-Chlorothiophen-2-yl)methylene]-3-hydroxy-5α ,6α -epoxy-10,13-dimethyl-1,3,4,7,8,9,10,11,12,13,15,16-dodecahydro-2H-cyclopenta[α ]phenanthren-17(14H)-one [Compound 26] | – | 16.6 µM | 15.6 µM | 14.3 µM | 43.8 µM | no relevant effects | higher than 75% | ≤ 50% | higher than 75% | – | – | –

Row | Compound | IC50 [6] | IC50 [7] | reduction in cell viability compared to the control ([1]; 50 μM) | IC50 [2] | IC50 [3] | IC50 [4] | IC50 [5] | effect on LNCaP cell proliferation [6] | decrease in LNCaP cell proliferation [6] | relative cell proliferation [8] | decrease on cell proliferation relative to the control [5] | effect on N27 cell viability ([1]; 10 µM alone) | protection against 6-OHDA-induced neurotoxicity [9] | cell proliferation relative to the control ([7]; MCF-7, 50 µM)
10 | Cc1ccc(C=C2CC3C4CC5OC56CC(O)CCC6(C)C4CCC3(C)C2=O)cc1 (stereo not drawn) [Compound 23, (E)-16-(4-Methylbenzylidene)-3-hydroxy-5α ,6α -epoxy-10,13-dimethyl-1,3,4,7,8,9,10,11,12,13,15,16-dodecahydro-2H-cyclopenta[α ]phenanthren-17(14H)-one] | 19.3 µM | 18.7 µM | – | 28.3 µM | 13.3 µM | 12.7 µM | 14 µM | no relevant effects | higher than 75% | ≤ 50% | – | – | – | –
11 | CC12CCC3C(CC4OC45CC(O)CCC35C)C1CC(=Cc1ccc(Br)cc1)C2=O (stereo not drawn) [Compound 25, (E)-16-(4-Bromobenzylidene)-3-hydroxy-5α ,6α -epoxy-10,13-dimethyl-1,3,4,7,8,9,10,11,12,13,15,16-dodecahydro-2H-cyclopenta[α ]phenanthren-17(14H)-one] | 36.9 µM | 14.5 µM | – | 16 µM | 15.3 µM | 15.4 µM | 14.5 µM | no relevant effects | higher than 75% | ≤ 50% | higher than 75% | – | – | –

— article PMC10045663, “Synthesis, In Vitro Biological Evaluation of Antiproliferative and Neuroprotective Effects and In Silico Studies of Novel 16E-Arylidene-5α,6α-epoxyepiandrosterone Derivatives” (Biomedicines, 2023)
